Experimental data as given in paper PMC7381750, “JP1 suppresses proliferation and metastasis of melanoma through MEK1/2 mediated NEDD4L-SP1-Integrin αvβ3 signaling” (Theranostics, 2020).
Several values for one entry are separate records, joined by “and”; a condition that tells them apart may be missing. Identical values can stand only once. Non-standard residues stand in square brackets, D forms with d. Residues, ends and D or L forms follow the SMILES beside them. pS = N[C@@H](COP(=O)(O)O)C(=O)O

Test: Cynomolgus monkey toxicity test: blood routine examination
Type: in vivo
Method: The test was completed by Suzhou Xishan Zhongke Drugs Research and Development Co., Ltd. (Xishan, Suzhou, China). The study proposal was approved by the Institute Animal Care and Use Committee (IACUC, ID19012912). Cynomolgus monkeys (3-4 years old) were randomly divided into three groups (n = 4 per group, half male and female); and the monkeys were treated with solvent control (Mannitol in saline, 75 mg/kg/d), JP1 (45 mg/kg/day) and JP1 (150 mg/kg/day) for 14 days. The experiment was ended on 15th day and the animals were euthanasia. The relevant clinical parameters were determined on 7th and 13th day, respectively. The observed parameters were including clinical symptoms, weight, food intake, body temperature, ophthalmology, electrocardiogram, blood routine examination, blood biochemistry, blood coagulation, urinalysis, immunotoxicity.
Supplementary database files: Cynomolgus monkey toxicity test […]
The study was conducted by a contract service in Suzhou Xishan Zhongke Drugs Research and Development Co., Ltd. (Xishan, Suzhou, China). All the use of animals were approved by the Institute Animal Care and Use Commttee, IACUC. IACUC no. :
ID19012912. The veterinarian will supervise the breeding and welfare of the animals. The company follows the Guide for the Care and Use of Laboratory Animals (8th ed., 2011).
Cynomolgus monkeys (3-4 years old) were randomly divided into three groups (n = 4 per group, two males and two females for each group); and treated q.d./i.v. with Mannitol (75 mg/kg/d in saline), JP1 (45 mg/kg/d) and JP1 (150 mg/kg/d) for 14 days, respectively. JP1 was dissolved in saline (100 mg/2 ml) and administered intravenously at a rate of 3 ml/min.
The JP1 was provided by Hybio Pharmaceutical Co., Ltd. (Shenzhen, China); the production of small packaging preparation (100 mg/vial in freeze-dried powder, purity > 98%; -20 °C for storage and transportation) was completed under strict GMP conditions and quality control procedures for biological preparations. No recovery period was set for this test; the experimental model was ended on 15th day. The relevant clinical indicators including symptoms, body weight, food intake, temperature, ophthalmology, electrocardiogram, blood routine examination, blood biochemistry, blood coagulation, urinalysis, immunotoxicity were determined on 7th and 13th, respectively. […]
indicators in all animals, and the pathological observation of organs was not determined. […]
relevant clinical indicators in two JP1 groups were no difference compared with those in […]
Level (NOAEL) of JP1 was 150 mg/kg.

[1] = JP1 45 mg/kg/d i.v., D7, monkeys 1105,1106,2107,2108, 45 mg/kg/day
[2] = JP1 45 mg/kg/d i.v., D13, monkeys 1105,1106,2107,2108, 45 mg/kg/day
[3] = JP1 150 mg/kg/d i.v., D7, monkeys 1209,1210,2211,2212
[4] = JP1 150 mg/kg/d i.v., D7, monkeys 1209,1210,2211,2212, 150 mg/kg/day
[5] = JP1 150 mg/kg/d i.v., D13, monkeys 1209,1210,2211,2212, 150 mg/kg/day

CC(=O)N[C@@H](Cc1ccccc1)C(=O)N1CCC[C@H]1C(=O)NCC(=O)N[C@@H](COP(=O)(O)O)C(=O)N[C@@H](CC(=O)O)C(=O)N[C@@H](CCCNC(=N)N)C(=O)N[C@@H](Cc1ccccc1)C(=O)NCC(=O)NCC(=O)NCC(=O)NCC(=O)N[C@@H](CCCNC(=N)N)C(=O)NCC(=O)N[C@@H](CC(=O)O)C(N)=O [JP1] (Ac-FPG[pS]DRFGGGGRGD-NH2)
BASO % [1]: 0.1% and 0.0% | EO % [1]: 0.4% and 0.0% and 0.9% and 0.5% | HCT [1]: 34.5% and 36.0% and 39.6% and 37.9% | HGB [1]: 118 g/L and 111 g/L and 119 g/L and 104 g/L | LYMPH % [1]: 17.9% and 15.8% and 30.8% and 26.7% | MCH [1]: 23.1 pg and 24.5 pg and 23.4 pg and 23.2 pg | MCHC [1]: 311 g/L and 308 g/L and 301 g/L | MCV [1]: 79.5 fL and 77.0 fL and 78.0 fL and 74.3 fL | MONO % [1]: 2.6% and 2.2% and 3.8% and 2.0% | NEUT % [1]: 81.6% and 79.8% and 64.5% and 70.2% | NEUT# [1]: 9.22 109/L and 12.27 109/L and 11.67 109/L and 7.64 109/L | PLT [1]: 476 109/L and 539 109/L and 485 109/L and 393 109/L | RBC [1]: 5.10 1012/L and 4.53 1012/L and 5.08 1012/L and 4.48 1012/L | RET% [1]: 0.68% and 2.83% and 1.78% and 2.67% | WBC [1]: 15.04 109/L and 11.55 109/L and 18.07 109/L and 10.87 109/L | BASO % [2]: 0.0% and 0.1% | EO % [2]: 1.2% and 1.9% and 0.3% and 2.5% | HCT [2]: 40.1% and 36.5% and 39.2% and 42.2% | HGB [2]: 121 g/L and 113 g/L and 115 g/L and 127 g/L | LYMPH % [2]: 39.5% and 40.7% and 28.2% and 42.7% | MCH [2]: 25.3 pg and 23.1 pg and 23.9 pg and 23.3 pg | MCHC [2]: 302 g/L and 310 g/L and 293 g/L and 301 g/L | MCV [2]: 83.7 fL and 74.5 fL and 81.5 fL and 77.4 fL | MONO % [2]: 7.1% and 3.5% and 4.4% and 4.8% | NEUT % [2]: 52.2% and 53.8% and 67.0% and 49.9% | PLT [2]: 449 109/L and 489 109/L and 561 109/L and 590 109/L | RBC [2]: 4.79 1012/L and 4.90 1012/L and 4.81 1012/L and 5.45 1012/L | RET% [2]: 3.65% and 0.95% and 3.41% and 1.99% | BASO % [3]: 0.1% | BASO# [3]: 0.01 109/L | EO % [4]: 0.1% and 0.4% and 0.6% | HCT [4]: 37.0% and 38.5% and 37.2% and 34.6% | HGB [4]: 117 g/L and 112 g/L and 110 g/L and 106 g/L | LYMPH# [4]: 3.39 109/L and 3.63 109/L and 4.19 109/L and 2.35 109/L | MCH [4]: 24.4 pg and 23.3 pg and 23.4 pg and 21.8 pg | MCHC [4]: 316 g/L and 291 g/L and 296 g/L and 306 g/L | MCV [4]: 77.2 fL and 80.0 fL and 79.1 fL and 71.2 fL | MONO % [4]: 3.4% and 4.0% and 2.4% | MONO# [4]: 0.53 109/L and 0.65 109/L and 0.50 109/L and 0.39 109/L | NEUT % [4]: 74.4% and 77.1% and 61.7% and 82.9% | NEUT# [4]: 11.48 109/L and 14.75 109/L and 7.71 109/L and 13.42 109/L | PLT [4]: 457 109/L and 540 109/L and 391 109/L and 474 109/L | RBC [4]: 4.79 1012/L and 4.81 1012/L and 4.70 1012/L and 4.86 1012/L | RET# [4]: 44.1 109/L and 70.7 109/L and 81.8 109/L and 74.4 109/L | RET% [4]: 0.92% and 1.47% and 1.74% and 1.53% | WBC [4]: 15.42 109/L and 19.12 109/L and 12.48 109/L and 16.18 109/L | BASO % [5]: 0.1% and 0.0% | EO % [5]: 1.7% and 0.3% and 0.8% and 1.5% | HCT [5]: 38.8% and 38.3% and 37.7% and 36.9% | HGB [5]: 109 g/L and 115 g/L and 121 g/L and 111 g/L | LYMPH % [5]: 30.4% and 27.4% and 43.1% and 40.0% | LYMPH# [5]: 4.07 109/L and 5.06 109/L and 2.56 109/L and 4.46 109/L | MCH [5]: 23.7 pg and 21.4 pg and 24.5 pg and 23.8 pg | MCHC [5]: 295 g/L and 296 g/L and 316 g/L and 294 g/L | MCV [5]: 80.2 fL and 72.3 fL and 77.7 fL and 80.9 fL | MONO % [5]: 6.3% and 6.4% and 4.1% and 7.8% | NEUT % [5]: 65.9% and 52.0% and 50.6% and 61.5% | PLT [5]: 357 109/L and 548 109/L and 451 109/L and 510 109/L | RBC [5]: 4.60 1012/L and 5.37 1012/L and 4.93 1012/L and 4.66 1012/L | RET% [5]: 1.63% and 2.23% and 2.58% and 1.36% | WBC [5]: 9.44 109/L and 12.65 109/L and 8.41 109/L and 16.30 109/L
